In data set [1] the test system is IL-1β cytokine output from THP-1 cells. Kind of data set: THP-1 AlphaLISA IL-1β cytokine assay. The class given is cell-based. Particulars: Homo sapiens, THP-1, differentiated THP-1 cells. The method, then: (§1) Measuring Inhibitory Effects on IL-1β and IL-6 Cytokine Output from THP-1s
(§2) The cytokine inhibition profiles of compounds of formula (I) were determined in a differentiated THP-1 cell assay. All assays were performed in RPMI-1640 growth medium (Gibco), supplemented with 10% fetal bovine serum (FBS; Gibco), 1% penicillin-streptomycin and 1% sodium pyruvate unless specified otherwise. The IL-1β and IL-6 cytokine inhibition assays were each run in a background of differentiated THP-1 cells as described below. All reagents described were from Sigma-Aldrich unless specified otherwise. Compounds were prepared as 10 mM DMSO stocks.
(§3) THP-1 cells were expanded as a suspension up to 80% confluence in appropriate growth medium. Cells were harvested, suspended, and treated with an appropriate concentration of phorbol 12-myristate 13-acetate (PMA) over a 72 hr period (37° C./5% CO2).
(§4) Following 72 hrs of THP-1 cell incubation, cellular medium was removed and replaced with fresh growth media containing 1% of FBS. Working concentrations of compounds were prepared separately in 10% FBS treated growth medium and pre-incubated with the cells for 30 minutes (37° C./5% CO2). Following the 30 minute compound pre-incubation, THP-1s were treated with an appropriate concentration of LPS and the THP-1s were subsequently incubated for a 24 hr period (37° C./5% CO2). An appropriate final concentration of Nigericin was then dispensed into the THP-1 plates and incubated for 1 hour (37° C./5% CO2) before THP-1 supernatants were harvested and collected in separate polypropylene 96-well holding plates.
(§5) Reagents from each of the […] and IL-6 commercial kits (Perkin Elmer) were prepared and run according to the manufacturer's instructions. Subsequently, fluorescence signal detection in a microplate reader was measured (EnVision® Multilabel Reader, Perkin Elmer).
(§6) Percentage inhibition was calculated per cytokine by normalising the sample data to the high and low controls used within each plate (+/−LPS respectively). Percentage inhibition was then plotted against compound concentration and the 50% inhibitory concentration (IC50) was determined from the resultant concentration-response curve.
(Alpha assays give light when donor and acceptor beads are brought close together.)

Data set [2] deals with IL-6 cytokine output from THP-1 cells. In words: THP-1 AlphaLISA IL-6 cytokine assay. The class given is cell-based. To be noted: Homo sapiens, THP-1, differentiated THP-1 cells. The method, then: as §1, §2, §3, §4, §5, §6
Data set [3] relates to NRF2 (nuclear factor erythroid 2-related factor 2). In words: NRF2 +/−GSH activation assay (DiscoverX PathHunter NRF2 translocation kit, U2OS cells). The data set is classed as cell-based. To be noted: Homo sapiens; for Emax: U2OS, normalised to dimethyl fumarate high control; for EC50: U2OS PathHunter cells, 6 hours.
A short description of data set [4]: Hepatocyte stability assay, human. The class given is in vitro ADME. To be noted: cryopreserved hepatocytes, 10 μM compound, 0.5×10^6 cells/mL, 60 min, read-out: T½. The text has this:
(§7) Defrosted cryo-preserved hepatocytes (viability>70%) may be used to determine the metabolic stability of a compound via calculation of intrinsic clearance (Clint; a measure of the removal of a compound from the liver in the absence of blood flow and cell binding). Clearance data are particularly important for in vitro work as they can be used in combination with in vivo data to predict the half-life and oral bioavailability of a drug.
(§8) The metabolic stability in hepatocytes assay involves a time-dependent reaction using both positive and negative controls. The cells were pre-incubated at 37° C. and spiked with test compound (and positive control); samples were taken at pre-determined time intervals and analysed to monitor the change in concentration of the initial drug compound over 60 minutes. A buffer incubation reaction (with no hepatocytes present) acted as a negative control and two cocktail solutions, containing compounds with known high and low clearance values (verapamil/7-hydroxycoumarin and propranolol/diltiazem), acted as positive controls. • 1. The assay was run with a cell concentration of 0.5×10^6 cells/mL in Leibovitz buffer. • 2. All compounds and controls were run in duplicate. • 3. Compound concentration was 10 μM. • 4. All compounds and controls were incubated with both cells and buffer to show turnover was due to hepatic metabolism. • 5. All wells on the incubation plate had 326.7 μL of either cells or buffer added. • 6. Prior to assay, cell and buffer-only incubation plates were preincubated for 10 mins at 37° C. • 7. The assay was initiated by adding compounds, 3.3 μL of 1 mM in 10% DMSO-90% Buffer; final DMSO concentration is 0.1%. • 8. Samples were taken at regular timepoints (0, 5, 10, 20, 40, 60 min) until 60 mins. • 9. Sample volume was 40 μL and was added to 160 μL of crash solvent (acetonitrile with internal standard) and stored on ice. • 10. At the end of the assay, the crash plates were centrifuged at 3500 rpm for 20 mins at 4° C. • 11. 80 μL of clear supernatant was removed and mixed with 80 μL of deionised water before being analysed by LC-MS/MS.
(§9) Raw LC-MS/MS data was exported to, and analysed in, Microsoft Excel for determination of intrinsic clearance. The percentage remaining of a compound was monitored using the peak area of the initial concentration as 100%. Intrinsic clearance and half-life values were calculated using a graph of the natural log of percentage remaining versus the time of reaction in minutes. Half-life (min) and intrinsic clearance (Clint in μL min^−1 10^−6 cells) values were calculated using the gradient of the graph (the elimination rate constant, k) and Equations 1 and 2.

In data set [5] the test system is hepatocytes. In words: Hepatocyte stability assay, human. The class given is in vitro ADME. Particulars: 10 μM compound, 0.5×10^6 cells/mL, 60 min.
Excerpt: as §7, §8, §9

Data set [6] in a line: Hepatocyte stability assay, mouse. To be noted: cryopreserved hepatocytes, 10 μM compound, 0.5×10^6 cells/mL, 60 min, read-out: T½. The data set is classed as in vitro ADME.
Excerpt: as §7, §8, §9

In data set [7] the test system is hepatocytes. Kind of data set: Hepatocyte stability assay, mouse. The data set is classed as in vitro ADME. To be noted: 10 μM compound, 0.5×10^6 cells/mL, 60 min.
Excerpt: as §7, §8, §9

Setting [8] is: LPS 24 hr then Nigericin 1 hour.
Setting [9] is: +GSH, 30 minute compound-GSH pre-incubation.

As usually defined, the IC50 is the point on the concentration scale where inhibition reaches its midpoint. Higher therefore signals weaker potency in that assay. The Emax is the greatest response seen or fitted, relative to the assay's reference. A word on the EC50: it is the concentration needed to bring the measured effect to its halfway point. A low value points to a more potent agent.

The structures appear in SMILES notation.

Turning to `C=C(CC(=O)OC1(c2cc(Cl)cc(Cl)c2)CCC1)C(=O)OCC(=O)O` [Example 1, 2-((4-(1-(3,5-dichlorophenyl)cyclobutoxy)-2-methylene-4-oxobutanoyl)oxy)acetic acid], the IC50 in data set [1] (setting [8]) was determined as 9.4 µM; in data set [2] (setting [8]) it was 4.6 µM. The Emax was determined as 259% in data set [3] (+GSH) and 375% in data set [3] (−GSH). Also, the results for the EC50 in data set [3] (setting [9]) and in data set [3] (−GSH) were 11.1 µM and 7.7 µM, respectively. Moreover, the half-life at 10 μM in data set [4] came out at 1.93 h; in data set [6] it was 0.4 h. Besides, the CIint was 13 μL min^−1 10^−6 cells in the data set with hepatocytes [5] and 52 μL min^−1 10^−6 cells in the data set with hepatocytes [7].

Turning to `C=C(CC(=O)OC1(c2ccc(C(F)(F)F)cc2)CCC1)C(=O)OCC(=O)O` [Example 2, 2-((2-methylene-4-oxo-4-(1-(4-(trifluoromethyl)phenyl)cyclobutoxy)butanoyl)oxy)acetic acid], the IC50 in data set [1] (setting [8]) worked out at 7.7 µM; in data set [1] (from repeated experiments), 9.1 µM; in data set [2] (setting [8]), 5.2 µM; in data set [2] (from repeated experiments) it was 7.7 µM. The results for the Emax in data set [3] (+GSH) and in data set [3] (−GSH) were 167% and 217%, respectively. The concentration for a half-maximal effect (EC50) in data set [3] (setting [9]) was determined as 21.6 µM; in data set [3] (−GSH), 15.4 µM. For the same compound, the half-life at 10 μM was greater than 7.67 h in data set [4] and 0.633 h in data set [6]. Moreover, the CIint in the data set with hepatocytes [5] is less than 3 μL min^−1 10^−6 cells; in the data set with hepatocytes [7], 50 μL min^−1 10^−6 cells.

As for `C=C(CC(=O)OC1(c2ccc(Cl)cc2)CCC1)C(=O)OCC(=O)O` [Example 4, 2-((4-(1-(4-chlorophenyl)cyclobutoxy)-2-methylene-4-oxobutanoyl)oxy)acetic acid], the IC50 in data set [1] (setting [8]) worked out at 12.4 µM; in data set [2] (setting [8]), 6.9 µM. The Emax amounted to 171% in data set [3] (+GSH) and 192% in data set [3] (−GSH). In addition, the concentration for a half-maximal effect (EC50) in data set [3] (setting [9]) was 28.9 µM; in data set [3] (−GSH), 19 µM. Also, the values for the half-life at 10 μM in data set [4] and in data set [6] were 3.15 h and 0.467 h, respectively. The CIint in the data set with hepatocytes [5] was found to be 8 μL min^−1 10^−6 cells; with hepatocytes [7], 69 μL min^−1 10^−6 cells.

Regarding `C=C(CC(=O)OC1(c2cc(Cl)ccc2Cl)CCC1)C(=O)OCC(=O)O` [Example 5, 2-((4-(1-(2,5-dichlorophenyl)cyclobutoxy)-2-methylene-4-oxobutanoyl)oxy)acetic acid], the IC50 in data set [1] (setting [8]) was determined as 10.6 µM; in data set [2] (setting [8]), 5.3 µM. The results for the maximal response (Emax) in data set [3] (+GSH) and in data set [3] (−GSH) were 185% and 208%, respectively. Also, the EC50 in data set [3] (setting [9]) was 25.4 µM; in data set [3] (−GSH), 16 µM. For the same compound, the half-life at 10 μM was found to be 2.87 h in data set [4] and 0.4 h in data set [6]. Besides, the CIint with hepatocytes [5] was found to be 9 μL min^−1 10^−6 cells; in the data set on hepatocytes [7], 80 μL min^−1 10^−6 cells.

For `C=C(CC(=O)OC1(c2c(Cl)cccc2Cl)CCC1)C(=O)OCC(=O)O` [Example 8, 2-((4-(1-(2,6-dichlorophenyl)cyclobutoxy)-2-methylene-4-oxobutanoyl)oxy)acetic acid], the values for the IC50 in data set [1] (setting [8]) and in data set [2] (setting [8]) were 15.2 µM and 6 µM, respectively. Moreover, the Emax was 170% in data set [3] (+GSH) and 193% in data set [3] (−GSH). Besides, the EC50 came to 18.7 µM in data set [3] (setting [9]) and 12.2 µM in data set [3] (−GSH). Besides, the half-life at 10 μM in data set [4] worked out at 2.37 h; in data set [6], 0.15 h. Also, the CIint in the data set on hepatocytes [5] turned out to be 11 μL min^−1 10^−6 cells; with hepatocytes [7] it was 223 μL min^−1 10^−6 cells.

Consider `C=C(CC(=O)OC1(c2cc(Cl)cc(Cl)c2)CCC1)C(=O)OCCC(=O)O` [Example 13, 3-((4-(1-(3,5-dichlorophenyl)cyclobutoxy)-2-methylene-4-oxobutanoyl)oxy)propanoic acid], for which the IC50 in data set [1] (setting [8]) was determined as 12.5 µM; in data set [2] (setting [8]) it was 5.9 µM. Moreover, the maximal effect (Emax) in data set [3] (+GSH) came to 143%; in data set [3] (−GSH), 251%. The figures for the EC50 in data set [3] (setting [9]) and in data set [3] (−GSH) were 11.6 µM and 7.6 µM, respectively. The half-life at 10 μM in data set [4] is 1.67 h; in data set [6] it was less than 0.05 h. Further, the CIint with hepatocytes [5] is 16 μL min^−1 10^−6 cells; with hepatocytes [7], greater than 460 μL min^−1 10^−6 cells.

For the compound `C=C(CC(=O)OC1(c2ccc(C(F)(F)F)cc2)CCC1)C(=O)OCCC(=O)O` [Example 22, 3-((2-methylene-4-oxo-4-(1-(4-(trifluoromethyl)phenyl)cyclobutoxy)butanoyl)oxy)propanoic acid], the 50% inhibitory concentration (IC50) came to 10.3 µM in data set [1] (setting [8]) and 11.2 µM in data set [2] (setting [8]). The results for the Emax in data set [3] (+GSH) and in data set [3] (−GSH) were 183% and 225%, respectively. Moreover, the concentration giving a half-maximal response (EC50) in data set [3] (setting [9]) was 22.3 µM; in data set [3] (−GSH), 14.9 µM. Moreover, the half-life at 10 μM in data set [4] was 2.6 h; in data set [6], 0.2 h. The CIint in the data set on hepatocytes [5] came out at 9 μL min^−1 10^−6 cells; with hepatocytes [7], 128 μL min^−1 10^−6 cells.

`C=C(CC(=O)OC1(c2ccc(C(F)(F)F)cc2)CCC1)C(=O)OC1(CC(=O)O)COC1` [Example 33, 2-(3-((2-methylene-4-oxo-4-(1-(4-(trifluoromethyl)phenyl)cyclobutoxy)butanoyl)oxy)oxetan-3-yl)acetic acid]: the IC50 in data set [1] (setting [8]) stood at 2.4 µM; in data set [2] (setting [8]), 5.7 µM. Also, the figures for the Emax in data set [3] (+GSH) and in data set [3] (−GSH) were 118% and 162%, respectively. Also, the EC50 in data set [3] (setting [9]) came out at 20.7 µM; in data set [3] (−GSH), 8.4 µM. For the same compound, the half-life at 10 μM in data set [4] turned out to be 3.37 h; in data set [6], 0.3 h. Moreover, the CIint in the data set with hepatocytes [5] is recorded as 7 μL min^−1 10^−6 cells; in the data set on hepatocytes [7], 82 μL min^−1 10^−6 cells.

For the compound `C=C(CC(=O)OC1(c2ccc(SC(F)(F)F)cc2)CCC1)C(=O)OCC(=O)O` [Example 34, 2-((2-methylene-4-oxo-4-(1-(4-((trifluoromethyl)thio)phenyl)cyclobutoxy)butanoyl)oxy)acetic acid], the values for the IC50 in data set [1] (setting [8]) and in data set [2] (setting [8]) were 5.1 µM and 2.7 µM, respectively. In addition, the Emax in data set [3] (+GSH) turned out to be 2.8%; in data set [3] (−GSH), 0%. In addition, the EC50 in data set [3] (setting [9]) is greater than 100 µM; in data set [3] (−GSH), greater than 54.8 µM. Moreover, the half-life at 10 μM came to 1.93 h in data set [4] and 0.383 h in data set [6]. For the same compound, the CIint is on record as 11 μL min^−1 10^−6 cells in the data set with hepatocytes [5] and 74 μL min^−1 10^−6 cells in the data set on hepatocytes [7].
